Data reported in article PMC10421400, “Methoxylated Flavonols and ent-Kaurane Diterpenes from the South African Helichrysum rutilans and Their Cosmetic Potential” (Plants, 2023).
Values joined by “and” are separate entries in the source; they are usually repeats but may differ in a detail not shown here. Equal entries are not always repeated. Where two headings read alike, the source gives them in different places.

Key:
[1] = Ferric-ion-reducing antioxidant power (FRAP) assay; conditions: ascorbic acid equivalents; sample stock 1 mg/mL; read at 593 nm after 30 min
Protocol: Working FRAP reagent was prepared in accordance with the method described previously. In a 96-well clear microplate (visible range), 10 μL of the stock solution (1 mg/mL, w/v) of the isolated compounds (C-1–C-7) and a methanol extract (HR) were mixed each with 300 μL FRAP reagent. The FRAP reagent was a mixture (10:1:1, v/v/v) of acetate buffer (300 mM, pH 3.6), tripyridyl triazine (TPTZ) (10 mM in 40 mM HCl), and FeCl3·6H2O (20 mM). After incubation at room temperature for 30 min, the plate was read at a wavelength of 593 nm on a Multiskan spectrum plate reader. L-Ascorbic acid was used as a standard with concentrations varying between 0 and 1000 μM. Further dilutions were carried out on the samples that were highly concentrated and such dilution factors were recorded and used for the calculations of the affected samples. The results were expressed as μM ascorbic acid equivalents per milligram dry weight (μM AAE/g) of the test samples.

[2] = Trolox equivalent absorbance capacity (TEAC) assay; conditions: trolox equivalents; sample stock 1 mg/mL; read at 734 nm after 30 min
Protocol: The total antioxidant activity of the test sample was measured using previously described methods. The stock solutions which contained 7 mM ABTS and 140 mM potassium-peroxodisulphate (K2S2O8) (Merck, Johannesburg, South Africa) were prepared and kept at −2 °C. The working solution was then prepared by adding 88 μL K2S2O8 solution to 5 mL ABTS solution. The two solutions were thoroughly mixed and allowed to react for 24 h at room temperature in the dark. Trolox (6-hydrox-2,5,7,8-tetramethylchroman-2-carboxylic acid) was used as the standard with concentrations ranging between 0 and 500 μM. After 24 h, the ABTS mix solution was diluted with ethanol to read a start-up absorbance (control) of approximately 2.0 (±0.1). The stock solution (1 mg/mL) of a methanol extract (HT) and purified compounds (25 μL) were allowed to react with 300 μL ABTS in the dark at room temperature for 30 min. The absorbance was read at 734 nm at 25 °C on the plate reader. The results were expressed as μM trolox equivalents per milligram dry weight (μM TE/g) of the test samples.

[3] = Automated ORAC assay, peroxyl radical (AAPH); conditions: for ORAC Peroxyl: trolox equivalents, AAPH-generated peroxyl radical, fluorescein probe; for ORAC peroxyl radical: scaled × 10^3
Protocol: (§1) ORAC was carried out according to the previous method with some modifications. […] The analyzer was programmed to record the fluorescence of fluorescein every 2 min after AAPH, or H2O2-Cu^2+ was added. The fluorescein solution and sample were added to the wells of an illuminated 96-well plate, and 12 µL of each of our samples (in stock solution of 1 mg/mL) was combined with 138 µL of a fluorescein working solution followed by the addition of 50 µL of 150 mg of AAPH prepared in situ in 6 mL phosphate buffer. Absorbance was measured using the Fluoroskan spectrum plate reader with the excitation wavelength set at 485 nm and the emission wavelength at 530 nm. A calibration curve was established using a trolox stock solution of concentrations in the range of 83–417 µM (R^2 = 0.9514). The ORAC values were calculated using a regression equation (Y = a + bX + cX^2) between trolox concentration (Y in µM) and the net area under the fluorescence decay curve (X). ORAC values were expressed as micromoles of trolox equivalents (TEs) per milligram of test sample. Samples without a perfect curve were further diluted and the dilution factors were used for the result calculations of such samples.

[4] = Automated ORAC assay, hydroxyl radical (H2O2-Cu2+); conditions: trolox equivalents; H2O2-Cu2+-generated hydroxyl radical; fluorescein probe
Protocol: as §1

[5] = test system: Fe2+-induced lipid peroxidation in microsomes from an S9 liver fraction; test: Inhibition of Fe(II)-induced microsomal lipid peroxidation (TBARS); format: biochemical; conditions: TBARS at 532 nm, Table 2 head prints no unit, IC50 in µg/mL
Protocol: A previously described method was used with a few modifications. The reaction mixture contained microsomes (1 mg of protein/mL in 0.01 M potassium phosphate buffer; pH 7.4, supplemented with 1.15% KCl, m/v) isolated from an S9 liver fraction using a sepharose column. The positive control included microsomes, buffer, and ferrous sulphate, in the absence of the samples to be tested.
The sample stock solutions (HR and C-1–C-7) were prepared in methanol (1 mg/mL, w/v). The working sample solutions were prepared in 0.01M potassium phosphate buffer, pH 7.4, supplemented with 1.15% KCl (m/v) diluted to 26.750, 13.375, 6.688, 3.344, 1.672, and 0.836 µg/mL concentrations. A total of 100 µL of each sample (working solutions) was dissolved in potassium phosphate buffer and pre-incubated with 500 µL microsomes at 37 °C for 30 min in a shaking water bath. A total of 200 µL of KCl buffer was added to the mixture, followed by 200 µL of a 2.5 mM ferrous sulphate solution and incubated at 37 °C for 1 h in a shaking water bath. The reaction was terminated with 10% trichloroacetic acid (TCA, m/v) solution (1 mL) containing 125 µL butylated hydroxytoluene (BHT, 0.01%) and 1 mM ethylenediaminetetraacetic acid (EDTA). Samples were centrifuged at 2000 rpm for 15 min; 1 mL of supernatant was mixed with 1 mL of 0.67% thiobarbituric acid (TBA) solution. The reaction mixture was then incubated in a water bath at 90 °C for 20 min and the absorbance was measured at 532 nm using Multiskan plate reader. EGCG, dissolved in methanol, was used as positive control. The percentage inhibition of TBARS formation relative to the positive control was calculated by Acontrol−Asample/Acontrol×100
(§2) All skin enzyme inhibitory assays and Fe^2+-induced lipid peroxidation assay calculations, expressed as percentage inhibitions ± SD, were performed using MS Excel 2013, while the final values, expressed as IC50, were determined using GraphPad prism 5.0. The data presented are means ± SD obtained from 96-well plate readers for all in vitro experiments in triplicate. Differences between the means were considered to be significant if p < 0.05 according to Prism’s one-way ANOVA. The ORAC, FRAP, and TEAC values were determined using their respective templates. Correlation coefficients among the methods used for determining total antioxidant assays (FRAP, TEAC, and ORAC), as well as skin enzymes inhibitions (tyrosinase anf elastase), were determined using SPSS version 21. Values at p < 0.05 were considered significant.

elastase = biological target: T1, elastase (Sus scrofa, UniProt P00772); test: Elastase inhibition assay; format: biochemical, porcine
T1 construct: purchased Sigma-Aldrich CAS No. 39445-21-1 (catalogue number not given); host or cells: porcine pancreas
T1 sequence (P00772 27-266): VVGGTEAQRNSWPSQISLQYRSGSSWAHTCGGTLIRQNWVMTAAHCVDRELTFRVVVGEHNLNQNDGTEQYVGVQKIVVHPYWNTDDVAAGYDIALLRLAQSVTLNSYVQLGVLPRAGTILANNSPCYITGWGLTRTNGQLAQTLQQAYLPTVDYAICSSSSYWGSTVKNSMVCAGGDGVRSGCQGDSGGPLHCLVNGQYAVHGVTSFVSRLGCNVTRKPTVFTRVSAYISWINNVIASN
Protocol: Inhibition of elastase by the test samples was assayed using N-succ-(Ala)3-nitroanilide (SANA) as the substrate, monitoring the release of p-nitroanilide by the method described with little adjustment. The inhibitory activity determined the intensity of color released during cleavage of SANA by the action of elastase. The working reagent for anti-elastase assay was prepared in line with the literature. […] The sample stock solutions were prepared as 1 mg in 1 mL methanol. […] The mixtures were further incubated for 10 min and the absorbance was measured at 410 nm. […] The sample control involved the sample and SANA (uninhibited sample). The percentage of elastase inhibition was calculated as follows: 1−B/A×100
Elastase inhibition (%), where A is the enzyme activity without sample and B is the activity in the presence of the sample.
as §2, with “The” for “All skin enzyme inhibitory assays and Fe^2+-induced lipid peroxidation assay calculations, expressed as percentage inhibitions ± SD, were performed using MS Excel 2013, while the final values, expressed as IC50, were determined using GraphPad prism 5.0. The”

[6] = porcine pancreatic elastase, SANA substrate, 410 nm, Table 3 head prints no unit, threshold 100 µg/mL, read-out: ELA (elastase inhibition)

SMILES	FRAP [1]	TEAC [2]	ORAC Peroxyl [3]	ORAC Hydroxyl [4]	LPO (IC50, inhibition of Fe2+-induced lipid peroxidation) [5]	IC50 (elastase; [6])	IC50 (elastase)	ORAC peroxyl radical [3]
C/C=C(\C)C(=O)Oc1c(O)c(OC)c(O)c2c(=O)c(OC)c(-c3ccccc3)oc12 [Compound C-1, 5,7,8-trihydroxy-3,6-dimethoxyflavone-8-O-2-methyl-2-butanoate]	1251.45 ± 4.18 µM AAE/g	1131.80 ± 6.41 µM TE/g	3523.51 ± 3.22 µM TE/g	2.114 ± 4.01 × 10^6 µM TE/g	13.123 ± 0.34 µg/mL	> 242 µM		
O=C(O[C@@H]1Cc2c(O)cc(O)cc2O[C@@H]1c1cc(O)c(O)c(O)c1)c1cc(O)c(O)c(O)c1 [EGCG, Epigallocatechin gallate, reference compound]	3326.45 ± 5.76 µM AAE/g	11545.44 ± 17.28 µM TE/g	14693.09 ± 5.53 µM TE/g	3.862 ± 4.65 × 10^6 µM TE/g	0.929 ± 4.11 µg/mL			
O=c1cc(CO)occ1O [KJA, kojic acid, reference compound]							> 704 µM	
COc1cc2oc(-c3ccccc3)c(OC)c(=O)c2c(O)c1OC [Compound C-4, 5-hydroxy-3,6,7-trimethoxyflavone]	1119.44 ± 11.89 µM AAE/g	1207.11 ± 7.21 µM TE/g	2814.51 ± 5.20 µM TE/g	1.917 ± 3.91 × 10^6 µM TE/g	14.90 ± 0.06 µg/mL	> 305 µM		2.814 ± 5.20 × 10^3 µMTE/g
C=C1C2CCC3C4(C)CCCC(C)(C(=O)O)C4CCC3(C2)C1O (stereo not drawn) [Compound C-7, 15-α-hydroxy-(-)-ent-kaur-16-en-19-oic acid]	60.90 ± 7.90 µM AAE/g	1424.51 ± 0.70 µM TE/g	93.10 ± 13.68 µM TE/g	0.845 ± 13.34 × 10^6 µM TE/g	>100 µg/mL	> 314 µM		
COc1c(OC)c(O)c2c(=O)c(OC)c(-c3ccccc3)oc2c1OC [Compound C-3, 5-hydroxy-3,6,7,8-tetramethoxyflavone]	1314.42 ± 2.42 µM AAE/g	1378.10 ± 9.06 µM TE/g	2431.30 ± 8.63 µM TE/g		11.64 ± 1.72 µg/mL	> 279 µM		2.431 ± 8.63 × 10^3 µMTE/g
C=C1CC23CCC4C(C)(C(=O)O)CCCC4(C)C2CCC1C3 (stereo not drawn) [Compound C-5, ent-kaurenoic acid]	19.66 ± 8.12 µM AAE/g	1105.00 ± 3.09 µM TE/g	364.44 ± 6.71 µM TE/g	0.429 ± 12.00 × 10^6 µM TE/g	>100 µg/mL	> 331 µM		
COc1c(O)c(OC)c2oc(-c3ccccc3)c(OC)c(=O)c2c1O [Compound C-2, 5,7-dihydroxy-3,6,8-trimethoxyflavone]	1402.62 ± 5.77 µM AAE/g	1276.11 ± 1.32 µM TE/g	2935.47 ± 0.13 µM TE/g	2.413 ± 6.20 × 10^6 µM TE/g	16.421 ± 0.92 µg/mL and 16.42 ± 0.92 µg/mL	> 290 µM		2.935 ± 0.13 × 10^3 µMTE/g
